# Columns and labels:
# [1] = Hydrogen sulfide production from heated mackerel meat homogenate (headspace detecting tube); settings: for Produced Volatile sulfide: hydrogen sulfide in headspace; for Inhibiting rate of volatile sulfide production: hydrogen sulfide, relative to control
# Procedure: AA-2G (reagent grade, commercialized by Hayashibara Biochemical Laboratories, Inc.) was dissolved in distilled water to give a solution of a concentration of 10%. A certain amount of the solution and 5 ml of 500 mM phosphate buffer (pH 7.0) were put into measuring flask and filled up to 50 ml to give the test solutions containing AA-2G at the twofold concentration described in Table 1. Also the test solutions containing ascorbic acid were prepared in the same way except for using ascorbic acid (guaranteed regent) in place of AA-2G. Five ml of 500 mM phosphate buffer (pH 7.0) was filled up to 50 ml with distilled water to give control solution. Edible part of commercial mackerel fillet without bone and skin was chopped with trio blender and homogeneously stirred to make minced mackerel. Forty-five grams of the minced mackerel was put into a beaker and added with 45 g of the test solution or control solution to give the samples at the concentration of AA-2G or ascorbic acid described in Table 1. The samples were treated with homogenizer (produced by IKA Works Inc.) at ice-chilled temperature to give the homogenates as the test samples. PH of the homogenates is from 6.21 to 6.38. Ten grams of the above samples were put into 20 ml-vials and sealed with butyl rubber cap and aluminum seal. They were heated in boiled water bath for 15 minutes and cooled in running cool water. After cooled, they were heated on heating block (80° C.) for 10 minutes and the solidified samples were broken with vortex mixer. The amounts of hydrogen sulfide in the headspace gas were measured by hydrogen sulfide detecting tube ([…] No. 4LT, produced by GL Sciences Inc.). Also the inhibiting rate (%) of hydrogen sulfide production were shown in Table 1, which were obtained by subtracting the percentage amounts of hydrogen sulfide produced from 1 g of mackerel meats added with test solutions relative to the amount of hydrogen sulfide produced from 1 g of mackerel meat added with control solution from 100 to obtain.
# [2] = Dimethyl-sulfide and dimethyl-disulfide production from heated milk (headspace gas chromatography); settings: for Produced Dimethyl-disulfide / Produced Dimethyl-sulfide: milk heated 130° C. one minute; for production of volatile sulfides (dimethyl-sulfide and dimethyl-disulfide) from the test solutions / Produced Volatile sulfide: milk; for Inhibiting rate of volatile sulfide production: relative to control milk; for Produced Volatile sulfide: sum of dimethyl-sulfide and dimethyl-disulfide
# Procedure: AA-2G (reagent grade, commercialized by Hayashibara Biochemical Laboratories, Inc.) was added in commercial milk to give the concentrations described in Table 2 to make the test solutions. Test solutions containing ascorbic acid were prepared in the same way except for using ascorbic acid (guaranteed regent) in place of AA-2G. The commercial milk was used plain as control. Sensory test of the solutions was performed by 11 panelists to evaluate the taste of each test solution added with AA-2G or ascorbic acid as being different (D) from control or as being the same (S) as control. As a result, eight or more of the 11 panelists gave a same evaluation to each test solution.
# One ml of the above samples were put into 20 ml-vials and sealed with butyl rubber cap and aluminum seal. After heated at 130° C. for one minute, the amounts of dimethyl-sulfide and dimethyl-disulfide in the headspace were measured by gas chromatography in conventional way. The sums of them were shown as the amounts of volatile sulfide in Table 2. Also the inhibiting rates (%) of volatile sulfide production were shown in Table 2, which were obtained by subtracting the percentage amounts of volatile sulfide produced from ml of the test solutions relative to the amount of volatile sulfide produced from 1 ml of control (milk) from 100 to obtain.
compound,measurement,setting,value
"O=C1O[C@H]([C@@H](O)CO)C(O)=C1O [Ascorbic acid, L-ascorbic acid, reference compound]",hydrogen sulfide production from homogenate of mackerel meat,[1]; concentration of 0.005% or less,equal to control
same,hydrogen sulfide production from homogenate of mackerel meat,[1]; concentration of 0.01% or more,enhanced
same,Produced Volatile sulfide,[1]; additive 0.0001% in sample,44.1 μg/g-mackerel
same,Produced Volatile sulfide,[1]; additive 0.0005% in sample,43.4 μg/g-mackerel
same,Produced Volatile sulfide,[1]; additive 0.001% in sample,43.6 μg/g-mackerel
same,Produced Volatile sulfide,[1]; additive 0.005% in sample,42.9 μg/g-mackerel
same,Produced Volatile sulfide,[1]; additive 0.01% in sample,71.7 μg/g-mackerel
same,Produced Volatile sulfide,[1]; additive 0.025% in sample,133.9 μg/g-mackerel
same,Produced Volatile sulfide,[1]; additive 0.05% in sample,139.3 μg/g-mackerel
same,Produced Volatile sulfide,[1]; additive 0.1% in sample,207.1 μg/g-mackerel
same,Produced Volatile sulfide,[1]; additive 0.5% in sample,257.4 μg/g-mackerel
same,Produced Volatile sulfide,[1]; additive 1.0% in sample,287.8 μg/g-mackerel
same,Inhibiting rate of volatile sulfide production,[1]; additive 0.0001% in sample,−2.1%
same,Inhibiting rate of volatile sulfide production,[1]; additive 0.0005% in sample,−0.5%
same,Inhibiting rate of volatile sulfide production,[1]; additive 0.001% in sample,−0.9%
same,Inhibiting rate of volatile sulfide production,[1]; additive 0.005% in sample,0.7%
same,Inhibiting rate of volatile sulfide production,[1]; additive 0.01% in sample,−66.0%
same,Inhibiting rate of volatile sulfide production,[1]; additive 0.025% in sample,−210.0%
same,Inhibiting rate of volatile sulfide production,[1]; additive 0.05% in sample,−222.5%
same,Inhibiting rate of volatile sulfide production,[1]; additive 0.1% in sample,−379.4%
same,Inhibiting rate of volatile sulfide production,[1]; additive 0.5% in sample,−495.8%
same,Produced Dimethyl-disulfide,[2]; additive 0.0001% in sample,0.56 μg/ml-milk
same,Produced Dimethyl-sulfide,[2]; additive 0.0001% in sample,1.32 μg/ml-milk
same,Produced Dimethyl-disulfide,[2]; additive 0.0005% in sample,0.54 μg/ml-milk
same,Produced Dimethyl-sulfide,[2]; additive 0.0005% in sample,1.41 μg/ml-milk
same,Produced Dimethyl-disulfide,[2]; additive 0.001% in sample,0.51 μg/ml-milk
same,Produced Dimethyl-sulfide,[2]; additive 0.001% in sample,1.28 μg/ml-milk
same,Produced Dimethyl-disulfide,[2]; additive 0.005% in sample,0.24 μg/ml-milk
same,Produced Dimethyl-sulfide,[2]; additive 0.005% in sample,0.71 μg/ml-milk
same,Produced Dimethyl-disulfide,[2]; additive 0.01% in sample,0.21 μg/ml-milk
same,Produced Dimethyl-sulfide,[2]; additive 0.01% in sample,0.45 μg/ml-milk
same,Produced Dimethyl-disulfide,[2]; additive 0.05% in sample,0.18 μg/ml-milk
same,Produced Dimethyl-sulfide,[2]; additive 0.05% in sample,0.54 μg/ml-milk
same,Produced Dimethyl-disulfide,[2]; additive 0.1% in sample,0.27 μg/ml-milk
same,Produced Dimethyl-sulfide,[2]; additive 0.1% in sample,0.61 μg/ml-milk
same,Produced Dimethyl-disulfide,[2]; additive 0.5% in sample,0.31 μg/ml-milk
same,Produced Dimethyl-sulfide,[2]; additive 0.5% in sample,0.74 μg/ml-milk
same,Produced Dimethyl-disulfide,[2]; additive 2.5% in sample,0.38 μg/ml-milk
same,Produced Dimethyl-sulfide,[2]; additive 2.5% in sample,1.07 μg/ml-milk
same,production of volatile sulfides (dimethyl-sulfide and dimethyl-disulfide) from the test solutions,[2]; concentration of 0.001% or less,equal to control
same,production of volatile sulfides (dimethyl-sulfide and dimethyl-disulfide) from the test solutions,[2]; concentration of 0.005%,inhibited
same,Inhibiting rate of volatile sulfide production,[2]; additive 0.0001% in sample,0.5%
same,Inhibiting rate of volatile sulfide production,[2]; additive 0.0005% in sample,−3.2%
same,Inhibiting rate of volatile sulfide production,[2]; additive 0.001% in sample,5.3%
same,Inhibiting rate of volatile sulfide production,[2]; additive 0.005% in sample,49.7%
same,Inhibiting rate of volatile sulfide production,[2]; additive 0.01% in sample,65.1%
same,Inhibiting rate of volatile sulfide production,[2]; additive 0.05% in sample,61.9%
same,Inhibiting rate of volatile sulfide production,[2]; additive 0.1% in sample,53.4%
same,Inhibiting rate of volatile sulfide production,[2]; additive 0.5% in sample,44.4%
same,Inhibiting rate of volatile sulfide production,[2]; additive 2.5% in sample,23.3%
same,Produced Volatile sulfide,[2]; additive 0.0001% in sample,1.88 µg/mL
same,Produced Volatile sulfide,[2]; additive 0.0005% in sample,1.95 µg/mL
same,Produced Volatile sulfide,[2]; additive 0.001% in sample,1.79 µg/mL
same,Produced Volatile sulfide,[2]; additive 0.005% in sample,0.95 µg/mL
same,Produced Volatile sulfide,[2]; additive 0.01% in sample,0.66 µg/mL
same,Produced Volatile sulfide,[2]; additive 0.05% in sample,0.72 µg/mL
same,Produced Volatile sulfide,[2]; additive 0.1% in sample,0.88 µg/mL
same,Produced Volatile sulfide,[2]; additive 0.5% in sample,1.05 µg/mL
same,Produced Volatile sulfide,[2]; additive 2.5% in sample,1.45 µg/mL

# Reference: US8343951B2, “Volatile sulfide production inhibitor and method for inhibiting the production of volatile sulfide using the inhibitor” (Kabushiki Kaisha Hayashibara Seibutsu Kagaku Kenkyujo, priority 2006, dated 2013)
